Literature values as cited in publication PMC3486420, “In Vitro and In Vivo Characterizations of Chiglitazar, a Newly Identified PPAR Pan-Agonist” (PPAR Research, 2012).

Test system: Wistar obese rats
Set-up: method as in PMID 16751799
Settings: Wistar obese rats treated for 9–40 days ref 18; cited from earlier work

Q: With `O=C(c1ccc(F)cc1)c1ccccc1NC(Cc1ccc(OCCn2c3ccccc3c3ccccc32)cc1)C(=O)O` (stereo not shown) [Chi, 2-[(2-(4-fluorobenzoyl)phenyl)amino]-3-[4-(2-carbazolylethoxy)-phenyl]-propionic acid] as the compound, how does the Optimal efficacy dose read?
A: 10 mg/kg
